# Laboratory results taken from ChEMBL document CHEMBL3352042, “Synthesis of novel benzimidazole functionalized chiral thioureas and evaluation of their antibacterial and anticancer activities” (Bioorg Med Chem Lett, 2014).
# Calls of active or inactive are those of the source. No cut-off for these calls is given here.
# Legend:
# Staphylococcus aureus [1] = assay: Antibacterial activity against Staphylococcus aureus MTCC 96 after 24 hrs by well diffusion method; assay type: functional
# Bacillus subtilis = assay: Antibacterial activity against Bacillus subtilis MTCC 121 after 24 hrs by well diffusion method; assay type: functional
# Staphylococcus aureus [2] = assay: Antibacterial activity against Staphylococcus aureus MLS16 MTCC 2940 after 24 hrs by well diffusion method; assay type: functional
# Micrococcus luteus = assay: Antibacterial activity against Micrococcus luteus MTC 2470 after 24 hrs by well diffusion method; assay type: functional
# Raoultella planticola = assay: Antibacterial activity against Klebsiella planticola MTCC 530 after 24 hrs by well diffusion method; assay type: functional
# Escherichia coli = assay: Antibacterial activity against Escherichia coli MTCC 739 after 24 hrs by well diffusion method; assay type: functional
# Pseudomonas aeruginosa = assay: Antibacterial activity against Pseudomonas aeruginosa MTCC 2453 after 24 hrs by well diffusion method; assay type: functional
# A549 = assay: Cytotoxicity against human A549 cells by MTT assay; assay type: functional, cell-based
# MCF7 = assay: Cytotoxicity against human MCF7 cells by MTT assay; assay type: functional, cell-based
# DU-145 = assay: Cytotoxicity against human DU145 cells by MTT assay; assay type: functional, cell-based
# HeLa = assay: Cytotoxicity against human HeLa cells by MTT assay; assay type: functional, cell-based
# [3] = Homo sapiens, A549, read-out: IC50
# [4] = Homo sapiens, MCF7, read-out: IC50
# [5] = Homo sapiens, DU-145, read-out: IC50
# [6] = Homo sapiens, HeLa, read-out: IC50
Compound,MIC (Staphylococcus aureus [1]),MIC (Bacillus subtilis),MIC (Staphylococcus aureus [2]),MIC (Micrococcus luteus),MIC (Raoultella planticola),MIC (Escherichia coli),MIC (Pseudomonas aeruginosa),IC50 (A549; [3]) [µM],IC50 (MCF7; [4]) [µM],IC50 (DU-145; [5]) [µM],IC50 (HeLa; [6]) [µM],"MIC (Staphylococcus aureus [1]; MTCC 96, 24 h) [µg/mL]","MIC (Bacillus subtilis; MTCC 121, 24 h) [µg/mL]","MIC (Staphylococcus aureus [2]; MLS16 MTCC 2940, 24 h) [µg/mL]","MIC (Micrococcus luteus; MTC 2470, 24 h) [µg/mL]","MIC (Raoultella planticola; MTCC 530, 24 h) [µg/mL]","MIC (Escherichia coli; MTCC 739, 24 h) [µg/mL]","MIC (Pseudomonas aeruginosa; MTCC 2453, 24 h) [µg/mL]",also measured
CC(C)[C@@H](NC(=S)Nc1cc(C(F)(F)F)cc(C(F)(F)F)c1)c1nc2ccccc2[nH]1,inactive,inactive,inactive,inactive,inactive,inactive,inactive,22.4,16.4,20.2,16.2,,,,,,,,
C[C@H](NC(=S)NCc1ccccc1)c1nc2ccccc2[nH]1,,,,,,,,,217,226,,12.5,25,> 200,> 200,> 200,> 200,> 200,IC50 (A549; a549): Not Active
CC(C)[C@H](NC(=S)Nc1ccccc1)c1nc2ccccc2[nH]1,,,,,,,,5.2,9.8,12.3,11.1,> 200,> 200,> 200,> 200,> 200,> 200,> 200,
S=C(Nc1ccccc1)N[C@@H](Cc1ccccc1)c1nc2ccccc2[nH]1,,,,,,,,,,,,25,> 200,> 200,> 200,> 200,12.5,> 200,IC50 (A549; a549): Not Active; IC50 (MCF7; mcf7): Not Active; IC50 (DU-145; du-145): Not Active; IC50 (HeLa; hela): Not Active
C[C@@H](NC(=S)Nc1cc(C(F)(F)F)cc(C(F)(F)F)c1)c1nc2ccccc2[nH]1,inactive,inactive,inactive,inactive,inactive,inactive,inactive,15.2,10.3,17.6,16.1,,,,,,,,
FC(F)(F)c1cc(NC(=S)N[C@@H](Cc2ccccc2)c2nc3ccccc3[nH]2)cc(C(F)(F)F)c1,,,,,,,,19,19.2,20.4,18.2,12.5,> 200,> 200,> 200,> 200,12.5,> 200,
CC(C)C[C@@H](NC(=S)Nc1ccccc1)c1nc2ccccc2[nH]1,inactive,inactive,inactive,inactive,inactive,inactive,inactive,18.7,11.9,20,12.1,,,,,,,,
C[C@H](NC(=S)Nc1cc(C(F)(F)F)cc(C(F)(F)F)c1)c1nc2ccccc2[nH]1,,,,,,,,220,187,154,133,12.5,25,12.5,25,> 200,> 200,> 200,
CC(C)C[C@H](NC(=S)Nc1ccccc1)c1nc2ccccc2[nH]1,,,,,,,,28.6,25.8,28.9,29.1,25,> 200,> 200,> 200,> 200,> 200,> 200,
C[C@H](NC(=S)Nc1ccccc1)c1nc2ccccc2[nH]1,,,,,,,,188,196,,,12.5,12.5,> 200,> 200,> 200,> 200,> 200,IC50 (DU-145; du-145): Not Active; IC50 (HeLa; hela): Not Active
CC(C)[C@H](NC(=S)Nc1cc(C(F)(F)F)cc(C(F)(F)F)c1)c1nc2ccccc2[nH]1,,,,,,,,25.1,24.3,26.1,28.9,25,12.5,12.5,25,25,12.5,6.25,
C[C@@H](NC(=S)NCc1ccccc1)c1nc2ccccc2[nH]1,inactive,inactive,inactive,inactive,inactive,inactive,inactive,18.7,14.3,28.7,,,,,,,,,IC50 (HeLa; hela): Not Active
S=C(Nc1ccccc1)N[C@H](Cc1ccccc1)c1nc2ccccc2[nH]1,inactive,inactive,inactive,inactive,inactive,inactive,inactive,16.2,9.4,18.4,10.4,,,,,,,,
NC[C@@H]1O[C@H](O[C@H]2[C@@H](O)[C@H](O[C@@H]3[C@@H](O)[C@H](N)C[C@H](N)[C@H]3O[C@H]3O[C@H](CN)[C@@H](O)[C@H](O)[C@H]3N)O[C@@H]2CO)[C@H](N)[C@@H](O)[C@@H]1O [FRAMYCETIN],,,,,,,,,,,,12.5,12.5,12.5,12.5,12.5,12.5,12.5,
FC(F)(F)c1cc(NC(=S)N[C@H](Cc2ccccc2)c2nc3ccccc3[nH]2)cc(C(F)(F)F)c1,inactive,inactive,inactive,inactive,inactive,inactive,inactive,15.8,12.1,17.4,13.2,,,,,,,,
C[C@@H](NC(=S)Nc1ccccc1)c1nc2ccccc2[nH]1,inactive,inactive,inactive,inactive,inactive,inactive,inactive,14.8,16.4,22.1,12.4,,,,,,,,
CC(C)C[C@H](NC(=S)NCc1ccccc1)c1nc2ccccc2[nH]1,,,,,,,,75.7,,21.1,31.2,> 200,> 200,> 200,> 200,> 200,> 200,> 200,
COc1cccc2c1C(=O)c1c(O)c3c(c(O)c1C2=O)C[C@@](O)(C(=O)CO)C[C@@H]3O[C@H]1C[C@H](N)[C@H](O)[C@H](C)O1 [DOXORUBICIN],,,,,,,,,,0.8,,,,,,,,,
CC(C)[C@@H](NC(=S)NCc1ccccc1)c1nc2ccccc2[nH]1,inactive,inactive,inactive,inactive,inactive,inactive,inactive,11.3,11.1,17.3,12.3,,,,,,,,
